# Assay results as given in patent US9700565B2, “Method of treating mixed lineage leukemia gene-rearranged acute lymphoblastic leukemias” (Dana-Farber Cancer Institute, Inc., priority 2003, dated 2017).
# Legend:
# SEMK2-M1 = experiment: In vivo xenograft model of MLL rearranged ALL with bioluminescent imaging, SEMK2-M1 cells; parameters: species or system SCID-beige mice; settings: 150 mg/kg once daily via gavage, 5 days per week
# Procedure: (§1) To determine if PKC412 is effective against an in vivo model of MLL rearranged ALL, a xenograft model system in which leukemia burden can be quantitated with in vivo bioluminescent imaging is established. SEMK2-M1 and RS4; 11 (ATCC Number: CRL-1873) cell lines are engineered to express firefly luciferase fused to neomycin phosphotransferase by retroviral transduction. One million leukemia cells are then injected into the tail vein of SCID-beige mice. Within 1 week, the bioluminescent signal is detectable in a location consistent with the femur. Pathologic analysis of similarly xenografted mice confirm that the leukemia cells are initially found in the mouse bone marrow present in the femoral head. The leukemia subsequently progresses to replace the normal bone marrow and involve other organs, thus mimicking the progression of human leukemia. Once the leukemia had engrafted, as can be determined by the presence of a bioluminescent signal, a cohort of mice is treated with either 150 mg/kg PKC412 or vehicle once daily via gavage for 5 days per week. Serial imaging of the two cohorts is then performed to quantitate disease burden. […] Thus, oral administration of PKC412 is effective in vivo against human lymphoblastic leukemia with an MLL rearranged ALL arrangement and activated FLT3.
# RS4; 11 = experiment: In vivo xenograft model of MLL rearranged ALL with bioluminescent imaging, RS4; 11 cells; settings: SCID-beige mice injected with RS4; 11 cells (does not over-express FLT3); 150 mg/kg once daily via gavage, 5 days per week
# Procedure: as §1
structure (smiles),measurement,setting,value
"CO[C@@H]1[C@H](N(C)C(=O)c2ccccc2)C[C@H]2O[C@]1(C)n1c3ccccc3c3c4c(c5c6ccccc6n2c5c31)C(=O)NC4 [PKC412, N-benzoyl-staurosporine]",quantification of total leukemic burden (bioluminescent imaging),"SEMK2-M1; SCID-beige mice engrafted with SEMK2-M1 cells (over-expresses FLT3), after 2 weeks of therapy",anti-tumor efficacy
same,tumor burden by pathological analysis at completion of the study,"SEMK2-M1; SEMK2-M1 injected mice, compared to control mice",vast differences in tumor burden
same,anti-tumor effect on leukemia (bioluminescent imaging),RS4; 11,no effect
